Patent US20240252488A1 (KOREA RESEARCH INSTITUTE OF CHEMICAL TECHNOLOGY, priority 2020, published 2024)

Tests used:
FADD−/− Jurkat cells = experiment: Necroptosis inhibition assay, TNF-α-induced necroptosis (CellTiter-Glo 2.0); format: cell-based, human; settings: TNF-α 15 ng/mL, FADD−/− Jurkat cells; for Necroptosis inhibition assay (Rescue %) 1 μM: compound 1 μM; for Necroptosis inhibition assay (Rescue %) 10 μM: compound 10 μM
Summary of the method: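 Tested at three fixed concentrations (0.1, 1, 10 μM final) with a 30-minute room-temperature preincubation ahead of 15 ng/mL TNF-α challenge lasting 20 to 24 hours. Inhibition rate and cytotoxicity derive from ATP luminescence.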

MLKL [1] = target: T1, MLKL (Homo sapiens, UniProt Q8NB16); experiment: MLKL degradation assay in HepG2 cell line (western blot); format: cell-based; design: endogenous in cells; host or cells: HepG2 or HaCaT; settings: cell line not given; for Degradation assay (Degradation %) 1 μM: compound 1 μM; for Degradation assay (Degradation %) 10 μM: compound 10 μM
T1 sequence (Q8NB16 1-471): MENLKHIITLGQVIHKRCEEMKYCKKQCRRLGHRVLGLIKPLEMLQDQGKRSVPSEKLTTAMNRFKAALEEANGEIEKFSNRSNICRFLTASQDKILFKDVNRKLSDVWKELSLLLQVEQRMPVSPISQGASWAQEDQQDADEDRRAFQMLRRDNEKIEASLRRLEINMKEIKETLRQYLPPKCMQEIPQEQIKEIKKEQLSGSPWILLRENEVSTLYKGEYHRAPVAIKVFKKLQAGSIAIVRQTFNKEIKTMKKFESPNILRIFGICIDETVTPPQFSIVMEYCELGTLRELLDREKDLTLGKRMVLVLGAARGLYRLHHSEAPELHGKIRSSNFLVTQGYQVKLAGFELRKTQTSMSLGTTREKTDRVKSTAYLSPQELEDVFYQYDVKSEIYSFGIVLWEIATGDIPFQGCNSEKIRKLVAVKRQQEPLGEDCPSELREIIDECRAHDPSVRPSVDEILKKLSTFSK
Summary of the method: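 Degradation is judged from MLKL band intensity on immunoblots of HepG2 lysates taken after 20-24 hours of compound at final 1 or 10 μM.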

MLKL [2] = target: T1, MLKL; experiment: Measurement of binding affinity with MLKL receptor (competitive binding assay, Kd); design: made in house; host or cells: HEK 293 cell line (T7 phage in E. coli BL21-derived host is also described)
Summary of the method: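 MLKL was produced in HEK 293 cells and tagged with DNA for detection. Liganded beads were blocked with excess biotin and washed to cut non-specific binding, then compounds (111× DMSO stocks, 0.9% DMSO in assay) competed for binding. Eluate kinase was measured by qPCR for Kd.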

Row | Structure (SMILES) | Necroptosis inhibition assay (Rescue %) 1 μM (FADD−/− Jurkat cells) [%] | Necroptosis inhibition assay (Rescue %) 10 μM (FADD−/− Jurkat cells) [%] | Degradation assay (Degradation %) 1 μM (MLKL [1]) [%] | Degradation assay (Degradation %) 10 μM (MLKL [1]) [%] | Kd (MLKL [2]) [nM]
1 | Nc1ncc(-c2cnn(C3CCN(CCC4CCN(C(=O)c5ccc(C(=O)NC6CCC(=O)NC6=O)cc5)CC4)CC3)c2)nc1C(=O)O[C@@H](C(=O)Nc1ccc(F)cc1)c1ccccc1 (stereo partly drawn) [TDH-536, (R)-2-((4-fluorophenyl)amino)-2-oxo-1-phenylethyl 3-amino-6-(1-(1-(2-(1-(4-((2,6-dioxopiperidin-3-yl)carbamoyl)benzoyl)piperidin-4-yl)ethyl)piperidin-4-yl)-1H-pyrazol-4-yl)pyrazine-2-carboxylate] | 31.84 | 21.93 | 46.11 | 56.40 | 0.22
2 | Nc1ncc(-c2cnn(C3CCN(C4CC5(CCN(CC6CCN(C(=O)c7ccc(C(=O)NC8CCC(=O)NC8=O)cc7)CC6)CC5)C4)CC3)c2)nc1C(=O)O[C@@H](C(=O)Nc1ccc(F)cc1)c1ccccc1 (stereo partly drawn) [TDH-537, (R)-2-((4-fluorophenyl)amino)-2-oxo-1-phenylethyl 3-amino-6-(1-(1-(7-((1-(4-((2,6-dioxopiperidin-3-yl)carbamoyl)benzoyl)piperidin-4-yl)methyl)-7-azaspiro[3.5]nonan-2-yl)piperidin-4-yl)-1H-pyrazol-4-yl)pyrazine-2-carboxylate] | 32.07 | 30.76 | 64.82 | 86.14 | 0.61
3 | Nc1ncc(-c2cnn(C3CCN(CCOC4CCN(C(=O)c5ccc(C(=O)NC6CCC(=O)NC6=O)cc5)CC4)CC3)c2)nc1C(=O)O[C@@H](C(=O)Nc1ccc(F)cc1)c1ccccc1 (stereo partly drawn) [TDH-538, (R)-2-((4-fluorophenyl)amino)-2-oxo-1-phenylethyl 3-amino-6-(1-(1-(2-((1-(4-((2,6-dioxopiperidin-3-yl)carbamoyl)benzoyl)piperidin-4-yl)oxy)ethyl)piperidin-4-yl)-1H-pyrazol-4-yl)pyrazine-2-carboxylate] | 24.02 | 21.52 | 66.34 | 54.70 | 0.31
4 | Nc1ncc(-c2cnn(C3CCN(CC4CCN(CC5CCN(C(=O)c6ccc(C(=O)NC7CCC(=O)NC7=O)cc6)CC5)CC4)CC3)c2)nc1C(=O)O[C@@H](C(=O)Nc1ccc(F)cc1)c1ccccc1 (stereo partly drawn) [TDH-539, (R)-2-((4-fluorophenyl)amino)-2-oxo-1-phenylethyl 3-amino-6-(1-(1-((1-((1-(4-((2,6-dioxopiperidin-3-yl)carbamoyl)benzoyl)piperidin-4-yl)methyl)piperidin-4-yl)methyl)piperidin-4-yl)-1H-pyrazol-4-yl)pyrazine-2-carboxylate] | 46.99 | 30.33 | 70.67 | 89.04 | 0.68
5 | Cn1c(=O)n(C2CCC(=O)NC2=O)c2ccc(N3CCC(C(=O)N4CCN(CCCN5CCC(n6cc(-c7cnc(N)c(C(=O)O[C@@H](C(=O)Nc8ccc(F)cc8)c8ccccc8)n7)cn6)CC5)CC4)CC3)cc21 (stereo partly drawn) [TDH-540, (R)-2-((4-fluorophenyl)amino)-2-oxo-1-phenylethyl 3-amino-6-(1-(1-(3-(4-(1-(1-(2,6-dioxopiperidin-3-yl)-3-methyl-2-oxo-2,3-dihydro-1H-benzo[d]imidazol-5-yl)piperidine-4-carbonyl)piperazin-1-yl)propyl)piperidin-4-yl)-1H-pyrazol-4-yl)pyrazine-2-carboxylate] | 20.79 | 17.37 | 81.44 | 56.99 | 0.37
6 | Nc1ncc(-c2cnn(C3CCN(CCOC4CCN(C(=O)C5CN(C6=CC(=O)N(C7CCC(=O)NC7=O)C6=O)C5)CC4)CC3)c2)nc1C(=O)O[C@@H](C(=O)Nc1ccc(F)cc1)c1ccccc1 (stereo partly drawn) [TDH-541, (R)-2-((4-fluorophenyl)amino)-2-oxo-1-phenylethyl 3-amino-6-(1-(1-(2-((1-(1-(1-(2,6-dioxopiperidin-3-yl)-2,5-dioxo-2,5-dihydro-1H-pyrrol-3-yl)azetidine-3-carbonyl)piperidin-4-yl)oxy)ethyl)piperidin-4-yl)-1H-pyrazol-4-yl)pyrazine-2-carboxylate] | 24.95 | 24.58 | 78.24 | 69.17 | 0.34
7 | Nc1ncc(-c2cnn(C3CCN(CCCN4CCN(C(=O)c5cccc(C(=O)NC6CCC(=O)NC6=O)c5)CC4)CC3)c2)nc1C(=O)O[C@@H](C(=O)Nc1ccc(F)cc1)c1ccccc1 (stereo partly drawn) [TDH-542, (R)-2-((4-fluorophenyl)amino)-2-oxo-1-phenylethyl 3-amino-6-(1-(1-(3-(4-(3-((2,6-dioxopiperidin-3-yl)carbamoyl)benzoyl)piperazin-1-yl)propyl)piperidin-4-yl)-1H-pyrazol-4-yl)pyrazine-2-carboxylate] | 24.80 | 29.40 | 84.12 | 72.45 | 0.53
8 | Nc1ncc(-c2cnn(C3CCN(CCC4CCN(C(=O)c5cccc(C(=O)NC6CCC(=O)NC6=O)c5)CC4)CC3)c2)nc1C(=O)O[C@@H](C(=O)Nc1ccc(F)cc1)c1ccccc1 (stereo partly drawn) [TDH-543, (R)-2-((4-fluorophenyl)amino)-2-oxo-1-phenylethyl 3-amino-6-(1-(1-(2-(1-(3-((2,6-dioxopiperidin-3-yl)carbamoyl)benzoyl)piperidin-4-yl)ethyl)piperidin-4-yl)-1H-pyrazol-4-yl)pyrazine-2-carboxylate] | 37.86 | 26.19 | 76.24 | 80.46 | 0.23
9 | Nc1ncc(-c2cnn(C3CCN(C4CC5(CCN(CC6CCN(C(=O)c7cccc(C(=O)NC8CCC(=O)NC8=O)c7)CC6)CC5)C4)CC3)c2)nc1C(=O)O[C@@H](C(=O)Nc1ccc(F)cc1)c1ccccc1 (stereo partly drawn) [TDH-544, (R)-2-((4-fluorophenyl)amino)-2-oxo-1-phenylethyl 3-amino-6-(1-(1-(7-((1-(3-((2,6-dioxopiperidin-3-yl)carbamoyl)benzoyl)piperidin-4-yl)methyl)-7-azaspiro[3.5]nonan-2-yl)piperidin-4-yl)-1H-pyrazol-4-yl)pyrazine-2-carboxylate] | 35.33 | 31.42 | 69.45 | 82.68 | 0.5
10 | Nc1ncc(-c2cnn(C3CCN(CCOC4CCN(C(=O)c5cccc(C(=O)NC6CCC(=O)NC6=O)c5)CC4)CC3)c2)nc1C(=O)O[C@@H](C(=O)Nc1ccc(F)cc1)c1ccccc1 (stereo partly drawn) [TDH-545, (R)-2-((4-fluorophenyl)amino)-2-oxo-1-phenylethyl 3-amino-6-(1-(1-(2-((1-(3-((2,6-dioxopiperidin-3-yl)carbamoyl)benzoyl)piperidin-4-yl)oxy)ethyl)piperidin-4-yl)-1H-pyrazol-4-yl)pyrazine-2-carboxylate] | 32.16 | 41.07 | 65.64 | 74.02 | 0.28
11 | Nc1ncc(-c2cnn(C3CCN(CC4CCN(CC5CCN(C(=O)c6cccc(C(=O)NC7CCC(=O)NC7=O)c6)CC5)CC4)CC3)c2)nc1C(=O)O[C@@H](C(=O)Nc1ccc(F)cc1)c1ccccc1 (stereo partly drawn) [TDH-546, (R)-2-((4-fluorophenyl)amino)-2-oxo-1-phenylethyl 3-amino-6-(1-(1-((1-((1-(3-((2,6-dioxopiperidin-3-yl)carbamoyl)benzoyl)piperidin-4-yl)methyl)piperidin-4-yl)methyl)piperidin-4-yl)-1H-pyrazol-4-yl)pyrazine-2-carboxylate] | 31.08 | 28.77 | 70.89 | 81.41 | 0.4
